# Results reported in patent US20240246992A1, “MACROCYCLIC LRRK2 KINASE INHIBITORS” (LES LABORATOIRES SERVIER, priority 2021, published 2024).
# Molecular target: human recombinant LRRK2 protein (Homo sapiens, UniProt Q5S007)
# Assay: LRRK2 kinase activity assay (ADP-Glo, LRRKtide peptide)
# Format: biochemical
# Details: human recombinant LRRK2 wt, LRRKtide peptide and ATP, 1 h at 37° C.
# How it was run: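 ADP-Glo luminescence read-out of a peptide assay: compound, ATP and LRRKtide substrate combined with recombinant human LRRK2 and incubated at 37 °C for 1 h. Ten-point data, N=2, curve-fitted to IC50.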
# human recombinant LRRK2 protein, sequence (Q5S007 whole entry): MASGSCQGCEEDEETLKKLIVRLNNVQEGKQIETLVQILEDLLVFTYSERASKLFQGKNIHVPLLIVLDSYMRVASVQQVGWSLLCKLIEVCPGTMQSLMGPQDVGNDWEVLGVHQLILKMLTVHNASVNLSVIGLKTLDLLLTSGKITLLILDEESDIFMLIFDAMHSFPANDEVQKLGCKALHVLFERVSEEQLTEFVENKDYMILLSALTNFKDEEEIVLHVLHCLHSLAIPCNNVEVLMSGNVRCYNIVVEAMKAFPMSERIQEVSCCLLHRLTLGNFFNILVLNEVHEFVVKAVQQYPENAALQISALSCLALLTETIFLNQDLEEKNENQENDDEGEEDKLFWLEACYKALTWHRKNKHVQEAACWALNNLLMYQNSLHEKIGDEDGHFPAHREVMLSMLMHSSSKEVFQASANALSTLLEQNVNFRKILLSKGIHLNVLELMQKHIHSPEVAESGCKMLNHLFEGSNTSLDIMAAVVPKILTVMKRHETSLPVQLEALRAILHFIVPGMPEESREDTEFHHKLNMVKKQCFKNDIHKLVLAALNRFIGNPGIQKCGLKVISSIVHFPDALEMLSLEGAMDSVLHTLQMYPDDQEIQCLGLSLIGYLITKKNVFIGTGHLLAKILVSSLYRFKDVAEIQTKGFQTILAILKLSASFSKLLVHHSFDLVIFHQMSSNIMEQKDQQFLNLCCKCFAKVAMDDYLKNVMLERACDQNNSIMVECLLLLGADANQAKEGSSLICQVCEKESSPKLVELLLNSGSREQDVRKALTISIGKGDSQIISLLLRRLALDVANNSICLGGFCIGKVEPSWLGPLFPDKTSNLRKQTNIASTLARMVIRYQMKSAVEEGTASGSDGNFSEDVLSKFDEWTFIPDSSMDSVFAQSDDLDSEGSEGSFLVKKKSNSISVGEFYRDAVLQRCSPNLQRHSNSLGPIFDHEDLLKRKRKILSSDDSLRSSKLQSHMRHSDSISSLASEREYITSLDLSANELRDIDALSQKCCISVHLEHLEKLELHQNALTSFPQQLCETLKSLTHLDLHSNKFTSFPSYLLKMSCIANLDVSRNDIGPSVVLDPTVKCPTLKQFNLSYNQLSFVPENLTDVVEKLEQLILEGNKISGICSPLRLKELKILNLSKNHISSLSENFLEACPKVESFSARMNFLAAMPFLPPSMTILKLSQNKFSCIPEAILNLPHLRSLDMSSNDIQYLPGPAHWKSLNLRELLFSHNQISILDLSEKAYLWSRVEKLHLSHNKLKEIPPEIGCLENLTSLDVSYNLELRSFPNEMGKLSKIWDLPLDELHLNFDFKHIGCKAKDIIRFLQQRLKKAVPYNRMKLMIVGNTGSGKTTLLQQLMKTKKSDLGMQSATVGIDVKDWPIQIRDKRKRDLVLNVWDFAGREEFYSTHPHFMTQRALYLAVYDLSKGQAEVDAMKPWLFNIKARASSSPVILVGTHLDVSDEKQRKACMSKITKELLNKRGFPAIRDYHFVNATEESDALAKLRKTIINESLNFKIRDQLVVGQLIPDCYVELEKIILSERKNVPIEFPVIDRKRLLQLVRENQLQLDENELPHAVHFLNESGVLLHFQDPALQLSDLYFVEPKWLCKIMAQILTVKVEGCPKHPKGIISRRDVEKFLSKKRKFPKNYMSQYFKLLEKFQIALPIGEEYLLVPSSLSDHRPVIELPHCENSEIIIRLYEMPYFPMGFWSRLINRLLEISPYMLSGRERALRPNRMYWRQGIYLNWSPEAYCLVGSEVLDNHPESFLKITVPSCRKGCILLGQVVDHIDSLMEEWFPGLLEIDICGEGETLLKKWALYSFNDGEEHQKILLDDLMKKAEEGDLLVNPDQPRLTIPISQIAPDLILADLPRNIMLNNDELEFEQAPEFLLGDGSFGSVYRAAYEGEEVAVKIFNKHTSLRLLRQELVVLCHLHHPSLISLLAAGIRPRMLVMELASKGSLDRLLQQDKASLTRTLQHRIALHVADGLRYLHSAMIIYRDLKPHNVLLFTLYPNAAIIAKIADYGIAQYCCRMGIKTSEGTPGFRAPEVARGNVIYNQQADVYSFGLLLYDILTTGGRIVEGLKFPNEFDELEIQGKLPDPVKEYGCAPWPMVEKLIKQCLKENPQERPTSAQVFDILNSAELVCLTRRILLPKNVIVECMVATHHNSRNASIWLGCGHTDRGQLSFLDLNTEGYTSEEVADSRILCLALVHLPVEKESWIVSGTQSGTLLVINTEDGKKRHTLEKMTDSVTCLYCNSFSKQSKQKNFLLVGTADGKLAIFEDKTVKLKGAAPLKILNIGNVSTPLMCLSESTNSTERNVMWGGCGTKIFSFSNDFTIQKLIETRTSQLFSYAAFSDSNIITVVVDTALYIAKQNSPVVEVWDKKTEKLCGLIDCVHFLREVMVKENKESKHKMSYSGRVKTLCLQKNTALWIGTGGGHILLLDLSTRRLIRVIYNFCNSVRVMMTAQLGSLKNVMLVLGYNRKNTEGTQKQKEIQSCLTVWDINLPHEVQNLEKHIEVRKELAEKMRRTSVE
row,SMILES,IC50 [µM]
1,"CC1CCOc2ccc3[nH]nc(c3c2)-c2cccc(n2)OCCN1 (stereo not drawn) [Example 240, 11-methyl-7,14-dioxa-10,19,20,23-tetraazatetracyclo[13.5.2.1^2,6.0^18,21]tricosa-1(20),2,4,6(23),15,17,21-heptaene]",< 0.01
2,"C[C@@H]1CNCCO[C@@H](C)c2cncc(c2)-c2n[nH]c3ccc(cc23)O1 (single isomer, unassigned) [Example 234, (7S or 7R,13R)-7,13-dimethyl-8,14-dioxa-4,11,19,20-tetraazatetracyclo[13.5.2.1^2,6.0^18,21]tricosa-1(20),2(23),3,5,15(22),16,18(21)-heptaene]",< 1
3,"C[C@@H]1COCCOC[C@H](C)n2cc(cn2)-c2n[nH]c3ccc(cc23)O1 [Example 93, (6S,13R)-6,13-dimethyl-8,11,14-trioxa-4,5,19,20-tetraazatetracyclo[13.5.2.1^2,5.0^18,21]tricosa-1(20),2(23),3,15(22),16,18(21)-hexaene]",< 0.1
4,"C[C@@H]1CCNCCCn2cc(cn2)-c2n[nH]c3ccc(cc23)O1 [Example 180, (12R)-12-methyl-13-oxa-4,5,9,18,19-pentaazatetracyclo [12.5.2.1^2,5.0^17,20]docosa-1(19),2(22),3,14(21),15,17(20)-hexaene]",< 0.1
5,"C[C@@H]1COCCOCCOc2ccc3[nH]nc(c3c2)-c2cnn1c2 [Example 65, (6R)-6-methyl-8,11,14-trioxa-4,5,19,20-tetraazatetracyclo[13.5.2.1^2,5.0^18,21] tricosa-1(20),2(23),3,15(22),16,18(21)-hexaene]",< 0.01
6,"C[C@H]1CCOCCOc2nccc(n2)-c2n[nH]c3ccc(cc23)O1 [Example 16, (13S)-13-methyl-7,10,14-trioxa-5,19,20,23-tetraazatetracyclo[13.5.2.1^2,6. 0^18,21]tricosa-1(20),2(23),3,5,15(22),16,18(21)-heptaene]",< 0.01
7,"Clc1cc2cc(c1)-c1n[nH]c3ccc(cc13)OCCCNCCO2 [Example 143, 4-chloro-7,14-dioxa-10,19,20-triazatetracyclo[13.5.2.1^2,6.0^18,21]tricosa-1(20),2,4,6(23),15,17,21-heptaene]",< 0.01
8,"O=C1CCn2ncc(n2)-c2n[nH]c3ccc(cc23)OC[C@@H](F)CN1 [Example 225, (11S)-11-fluoro-13-oxa-4,5,9,18,19,22-hexaazatetracyclo [12.5.2.1^2,5.0^17,20]docosa-1(19),2(22),3,14(21),15,17(20)-hexaen-8-one]",< 0.01
9,"C[C@H]1CCOC[C@H](C)Oc2cncc(c2)-c2n[nH]c3ccc(cc23)O1 [Example 20, (8S,13S)-8,13-dimethyl-7,10,14-trioxa-4,19,20-triazatetracyclo[13.5.2.1^2,6. 0^18,21]tricosa-1(20),2(23),3,5,15(22),16,18(21)-heptaene]",< 0.1
10,"C[C@H]1CCNCCCn2cc(cn2)-c2n[nH]c3ccc(cc23)O1 [Example 233, (12S)-12-methyl-13-oxa-4,5,9,18,19-pentaazatetracyclo [12.5.2.1^2,5.0^17,20] docosa-1(19),2(22),3,14(21),15,17(20)-hexaene]",< 0.01
11,"C[C@@H]1COCC[C@H](C)Oc2ccc3[nH]nc(c3c2)-c2cccc(n2)O1 [Example 33, (8R,13S)-8,13-dimethyl-7,10,14-trioxa-19,20,23-triazatetracyclo[13.5.2.1^2,6.0^18,21]tricosa-1(20),2(23),3,5,15(22),16,18(21)-heptaene]",< 0.1
12,"O=C1COc2cc(cc(C3CCCOC3)c2)-c2n[nH]c3ccc(cc23)OCCCN1 (stereo not drawn) [Example 148, 4-(oxan-3-yl)-7,14-dioxa-10,19,20-triazatetracyclo[13.5.2.1^2,6.0^18,21]tricosa-1(20),2(23),3,5,15,17,21-heptaen-9-one]",< 0.01
13,"C[C@H]1CCOCCCc2cccc(c2)-c2n[nH]c3ccc(cc23)O1 [Example 43, (13S)-13-methyl-10,14-dioxa-19,20-diazatetracyclo[13.5.2.1^2,6.0^18,21]tricosa-1(20),2(23),3,5,15(22),16,18(21)-heptaene]",< 0.01
14,"FC1(F)COCCCOc2ccc3[nH]nc(c3c2)-c2cnn(c2)C1 [Example 118, 7,7-difluoro-9,13-dioxa-4,5,18,19-tetraazatetracyclo[12.5.2.1^2,5.0^17,20] docosa-1(19),2(22),3,14(21),15,17(20)-hexaene]",< 0.01

# Results, then the compound that gave them:
row,IC50 [µM],SMILES
1,< 0.01,"O=C1COc2cc(C3=CCOCC3)cc(c2)-c2n[nH]c3ccc(cc23)OCCCN1 [Example 208, 4-(3,6-dihydro-2H-pyran-4-yl)-7,14-dioxa-10,19,20-triazatetracyclo[13.5.2.1^2,6.0^18,21]tricosa-1(20),2(23),3,5,15,17,21-heptaen-9-one]"
2,< 0.01,"O=C1COc2cncc(c2)-c2n[nH]c3ccc(cc23)OCC(F)(F)CN1 [Example 202, 12,12-difluoro-7,14-dioxa-4,10,19,20-tetraazatetracyclo [13.5.2.1^2,6.0^18,21]tricosa-1(20),2,4,6(23),15,17,21-heptaen-9-one]"
3,< 0.01,"C[C@H]1CCOCCOc2cccc(n2)-c2n[nH]c3ccc(cc23)O1 [Example 28, (13S)-13-methyl-7,10,14-trioxa-19,20,23-triazatetracyclo [13.5.2.1^2,6.0^18,21] tricosa-1(20),2(23),3,5,15(22),16,18(21)-heptaene]"
4,< 0.01,"CC1(C)Oc2cncc(c2)-c2n[nH]c3ccc(cc23)OCCCNC1=O [Example 201, 8,8-dimethyl-7,14-dioxa-4,10,19,20-tetraazatetracyclo [13.5.2.1^2,6.0^18,21]tricosa-1(20),2(23),3,5,15,17,21-heptaen-9-one]"
5,< 0.1,"C[C@@H]1COCCOCCn2ncc(n2)-c2n[nH]c3ccc(cc23)O1 [Example 71, (13R)-13-methyl-8,11,14-trioxa-4,5,19,20,23-pentaazatetracyclo[13.5.2.1^2,5.0^18,21]tricosa-1(20),2(23),3,15(22),16,18(21)-hexaene]"
6,< 0.01,"C[C@H]1CCOCCOCC2=NC=C(S2)c2n[nH]c3ccc(cc23)O1 [Example 66, (13S)-13-methyl-7,10,14-trioxa-23-thia-4,19,20-triazatetracyclo[13.5.2.1^2,5.0^18,21]tricosa-1(20),2,4,15(22),16,18(21)-hexaene]"
7,< 0.01,"C[C@H]1CCNCCOc2cc(cc(N3CCOCC3)c2)-c2n[nH]c3ccc(cc23)O1 [Example 175, (13S)-13-methyl-4-(morpholin-4-yl)-7,14-dioxa-10,19,20-triazatetracyclo[13.5.2.1^2,6.0^18,21]tricosa-1(20),2(23),3,5,15,17,21-heptaene]"
8,< 0.01,"C[C@H]1COc2ccc3[nH]nc(c3c2)-c2cc(C#N)n(c2)CCOCCO1 [Example 85, (12S)-12-methyl-8,11,14-trioxa-5,19,20-triazatetracyclo[13.5.2.1^2,5.0^18,21] tricosa-1(20),2(23),3,15(22),16,18(21)-hexaene-4-carbonitrile]"
9,< 0.1,"c1nn2cc1-c1n[nH]c3ccc(nc13)OCCOCCOCC2 [Example 73, 8,11,14-trioxa-4,5,19,20,22-pentaazatetracyclo[13.5.2.1^2,5.0^18,21]tricosa-1(20),2(23),3,15(22), 16,18(21)-hexaene]"
10,< 0.01,"C[C@@H]1CCOCC[C@@H](C)n2cc(cn2)-c2n[nH]c3ccc(cc23)O1 [Example 35, (6R,12R)-6,12-dimethyl-9,13-dioxa-4,5,18,19-tetraazatetracyclo[12.5.2.1^2,5.0^17,20]docosa-1(19),2(22),3,14(21),15,17(20)-hexaene]"
